# Assay results taken from patent publication US20230331803A1, “CO-AGONISTS OF THE GLP-1 AND AMYLIN RECEPTORS” (priority 2020, published 2023).
# Starred links: 1 amine or outer side, 2 acyl side, 3 side chain; linkers in the order of their positions; H or OH if unused. Positions of bridges follow the written chain, without caps; N, C: chain ends. Non-standard residues stand in square brackets, D forms with d. Groups on a side chain read outwards from the residue. *: point of attachment. C20 diacid = O=C(O)CCCCCCCCCCCCCCCCCCC(=O)*; C18 diacid = O=C(O)CCCCCCCCCCCCCCCCC(=O)*; C16 diacid = O=C(O)CCCCCCCCCCCCCCC(=O)*; γGlu = O=C(O)[C@H](CCC(=O)[*:2])N[*:1]; AEEA = NCCOCCOCC(=O)O; Aib = CC(C)(N)C(=O)O
# Biological target: T1, human amylin receptor (hAmyR3) (Homo sapiens, UniProt O60896+P30988)
# T1 construct: host or cells: BHK cells (Hollex-1 line: human calcitonin receptor (a) + CRE-Luc), further transfected with human RAMP3
# T1 sequence (P30988 25-474): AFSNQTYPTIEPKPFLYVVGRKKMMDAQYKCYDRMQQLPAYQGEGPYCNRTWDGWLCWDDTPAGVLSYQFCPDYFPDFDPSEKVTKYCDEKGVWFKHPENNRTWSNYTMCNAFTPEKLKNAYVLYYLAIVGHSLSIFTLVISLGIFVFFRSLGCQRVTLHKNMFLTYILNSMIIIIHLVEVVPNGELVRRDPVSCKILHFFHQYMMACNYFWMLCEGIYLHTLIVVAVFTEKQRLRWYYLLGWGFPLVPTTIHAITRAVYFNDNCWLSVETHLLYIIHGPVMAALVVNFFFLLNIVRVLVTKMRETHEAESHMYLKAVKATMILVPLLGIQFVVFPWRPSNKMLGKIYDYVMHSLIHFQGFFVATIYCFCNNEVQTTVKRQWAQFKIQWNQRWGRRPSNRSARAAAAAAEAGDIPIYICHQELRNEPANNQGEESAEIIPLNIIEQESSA
# T1 sequence (O60896 24-148): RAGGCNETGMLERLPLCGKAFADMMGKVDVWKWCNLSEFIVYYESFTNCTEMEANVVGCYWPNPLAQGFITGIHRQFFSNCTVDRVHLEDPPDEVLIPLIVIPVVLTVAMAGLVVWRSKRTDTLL
# Assay: Human amylin receptor in vitro potency assay (CRE-luciferase reporter, BHK cells);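 further: BHK cells expressing human calcitonin receptor plus RAMP3 (amylin-3 receptor) with a CRE-luciferase reporter, agonist activity read as luminescence from cAMP-driven transcription, 7-point serial dilutions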
# Format: cell-based
# Conditions: for EC50: Table 4a, BHK hAmyR3/CRE-Luc cells, 3 hours, read-out: Human AmyR3 potency [EC50 (pM)]
Compound,EC50 [pM],"Ability to agonise the amylin receptor, in words (Tables 4a-4c)"
CC[C@H](C)[C@H](NC(=O)[C@H](Cc1ccccc1)NC(=O)[C@H](CCCCNC(=O)COCCOCCNC(=O)COCCOCCNC(=O)CC[C@H](NC(=O)CCCCCCCCCCCCCCCCC(=O)O)C(=O)O)NC(=O)[C@H](CCCNC(=N)N)NC(=O)[C@H](C)NC(=O)[C@H](C)NC(=O)[C@H](CCC(N)=O)NC(=O)[C@H](CCC(=O)O)NC(=O)[C@H](CCC(=O)O)NC(=O)[C@H](CC(C)C)NC(=O)[C@H](Cc1ccc(O)cc1)NC(=O)[C@H](CO)NC(=O)[C@H](CO)NC(=O)[C@@H](NC(=O)[C@H](CC(=O)O)NC(=O)[C@H](CO)NC(=O)[C@@H](NC(=O)[C@H](Cc1ccccc1)NC(=O)[C@@H](NC(=O)CNC(=O)[C@H](CCC(=O)O)NC(=O)C(C)(C)NC(=O)[C@@H](N)Cc1c[nH]cn1)[C@@H](C)O)[C@@H](C)O)C(C)C)C(=O)N[C@@H](CCC(=O)O)C(=O)N[C@@H](Cc1c[nH]c2ccccc12)C(=O)N[C@@H](CC(C)C)C(=O)N[C@H](C(=O)N[C@@H](CCCNC(=N)N)C(=O)NCC(=O)N[C@@H](CCCCNC(=O)COCCOCCNC(=O)COCCOCCNC(=O)CC[C@H](NC(=O)CCCCCCCCCCCCCCCCC(=O)O)C(=O)O)C(=O)NCC(=O)N[C@@H](CCC(=O)O)C(=O)NCC(=O)N[C@@H](CCC(N)=O)C(=O)N[C@@H](CCC(=O)O)C(=O)N1CCC[C@H]1C(=O)NCC(=O)NCC(=O)N[C@@H](C)C(=O)N[C@@H](CO)C(=O)N[C@@H](CCC(=O)O)C(=O)N[C@@H](CC(C)C)C(=O)N[C@@H](CO)C(=O)N[C@H](C(=O)N[C@@H](C)C(=O)N[C@@H](C)C(=O)N[C@@H](CC(C)C)C(=O)NCC(=O)N[C@@H](CCCNC(=N)N)C(=O)N[C@@H](CC(C)C)C(=O)N[C@@H](CO)C(=O)N[C@@H](C)C(=O)N[C@@H](CCC(=O)O)C(=O)N[C@@H](CC(C)C)C(=O)N[C@@H](Cc1c[nH]cn1)C(=O)N[C@@H](CCC(=O)O)C(=O)N[C@@H](CC(C)C)C(=O)N[C@@H](C)C(=O)N[C@H](C(=O)N[C@@H](CC(C)C)C(=O)N1CCC[C@H]1C(=O)N[C@@H](CCCNC(=N)N)C(=O)N[C@H](C(=O)N[C@@H](CCC(=O)O)C(=O)N[C@H](C(=O)NCC(=O)N[C@@H](CO)C(=O)NCC(=O)N[C@@H](CO)C(=O)N1CCC[C@H]1C(N)=O)[C@@H](C)O)[C@@H](C)O)[C@@H](C)O)[C@@H](C)O)C(C)C [Compound 0106],28.4,–
H-H[Aib]EGTFTSDVSSYLEEQAARK([AEEA-AEEA-γGlu-γGlu-γGlu-C20 diacid])FIEWLVRGRQEAASELSTAALGRLSAELHQLATLPRTETGSGSP-NH2 [Compound 0636],8.5,–
"H-H[Aib]EGTFTSDVSSYLEGQAAK([AEEA-AEEA-γGlu-C18 diacid])EFIAWLVRGRGGQEPGQEPK([γGlu-γGlu-C20 diacid])CNTATCATQRLADFLRHSSPNFGAIPSSTNVGSRTY-NH2 (disulfide 41-46) [Comparator compound 0668, reference compound]",–,do not activate the amylin receptor
H[Aib]EGTFTSDVSSYLEEQAARK([AEEA-AEEA-γGlu-C16 diacid])FIAWLVRGRGGK([AEEA-AEEA-γGlu-C16 diacid])EASELSTAALGRLSAELHELATLPRTETGSGSP-NH2 [Compound 0074],60.9,–
